Results taken from patent publication US20090280069A1, “PROGUANIL TO TREAT SKIN/MUCOSAL DISEASES” (Tolmar, Inc., priority 2008, published 2009).
Read-outs that look alike come from different tables or passages of the source.

How the values were obtained:
[1] = system: Trichomonas vaginalis ATCC 30001; assay: viability over time assay, T. vaginalis; assay type: cell-based; conditions: for viability at 10 µg/mL / viability at 20 µg/mL / viability at 40 µg/mL / viability at 80 µg/mL / viability at 160 µg/mL / viability at 320 µg/mL: Trichomonas vaginalis, ATCC30001
Method: Trichomonas vaginalis infections in females usually involves vaginal discharge and vulvovaginal irritation but is usually asymptomatic in males. A viability over time assay was used to test the effects of varying concentrations of proguanil on a culture of the protozoa Trichomonas vaginalis ATCC 30001. A suspension of T. vaginalis was prepared and inoculated into microtiter plate wells containing supplemented Trichomonas Medium and proguanil concentrations of 320, 160, 80, 40, 20, and 10 μg/ml. A growth control using pyrogen-free water plus supplemented Trichomonas medium was used in place of the drug because it has no antiprotozoal effect. DGME was the solvent used to dissolve the proguanil, accordingly, a small amount of 10% DGME was used as the solvent control in the medium. These inoculated broth solutions were then allowed to incubate for a period of 6 hours. Samples were taken at 1, 3, and 6 hours and observed using a phase contrast microscope. Multiple microscope fields were counted and the number of viable and nonviable T. vaginalis recorded. In the experiment, the effects of proguanil on the T. vaginalis were observed as loss of flagella movement, loss of undulating membrane movement, and loss of cell refractivity.

[2] = system: Streptococcus agalactiae ATCC 49446; assay: time kill assay, S. agalactiae (Group B); assay type: cell-based
Method: Streptococcus agalactiae (Group B) infections can lead to skin diseases such as erysipelas and cellulitis. A time kill assay was used to test the effects of varying concentrations of proguanil on a culture of Streptococcus agalactiae ATCC 49446. An inoculum of S. agalactiae was prepared and inoculated in vials containing Muller Hinton II broth and proguanil concentrations of 160, 80, 16, 8, and 1.6 μg/ml. A growth control using phosphate buffered saline A (PBSA) plus Mueller Hinton II broth was used in place of the drug because it has no antimicrobial effect. DGME was the solvent used to dissolve the proguanil, accordingly, 10% DGME was used as the solvent control. These inoculated broth solutions were then allowed to incubate for a period of 72 hours. Samples were taken at 0, 4, 24, 48 and 72 hours and spiral plated so the CFU/ml could be calculated. The effects of proguanil on the S. agalactiae were observed.

[3] = system: C. minutissimum ATCC 23348; assay: time kill assay, C. minutissimum; assay type: cell-based, Corynebacterium minutissimum
Method: Corynebacterium minutissimum is the causative agent of erythrasma, a superficial infection of the skin characterized by slowly spreading pruritic, reddish-brown macular patches. A microbiological study used a time kill assay with C. minutissimum ATCC 23348 as an indicator of the antibacterial activity of proguanil. […] A broth only control as well as a solvent 10% DGME control were added to the vials so that the total test volume was 15 ml. One hundred μl of a freshly grown suspension of the C. minutissimum was then added at time zero so that the initial bacterial suspension was between 10^7 and 10^8 CFU/ml. All test and control suspensions were then incubated under aerobic conditions at 35° C. Aliquots of the test and control suspensions were removed at 24, 48, and 72 hours and plated onto tryptic soy agar in triplicate using a spiral plater. These plates were incubated aerobically at 35° C. for 1-3 days. Surviving colonies were then counted and the CFU/ml of test and control suspensions calculated and graphed. The effects of proguanil on the C. minutissimum were observed.

CC(C)NC(=N)NC(=N)Nc1ccc(Cl)cc1 [Proguanil, N-(4-Chlorophenyl)-N′-(1-methylethyl)imidodicarbonimidic diamide]
Nonviable ([1]; 10 ug/ml, 1 Hour): 24
Viable ([1]; 10 ug/ml, 1 Hour): 26
Nonviable ([1]; 10 ug/ml, 3 Hour): 25
Viable ([1]; 10 ug/ml, 3 Hour): 25
Nonviable ([1]; 10 ug/ml, 6 Hour): 25
Viable ([1]; 10 ug/ml, 6 Hour): 25
Nonviable ([1]; 20 ug/ml, 1 Hour): 19
Viable ([1]; 20 ug/ml, 1 Hour): 31
Nonviable ([1]; 20 ug/ml, 3 Hour): 28
Viable ([1]; 20 ug/ml, 3 Hour): 22
Nonviable ([1]; 20 ug/ml, 6 Hour): 29
Viable ([1]; 20 ug/ml, 6 Hour): 21
Nonviable ([1]; 40 ug/ml, 1 Hour): 22
Viable ([1]; 40 ug/ml, 1 Hour): 28
Nonviable ([1]; 40 ug/ml, 3 Hour): 25
Viable ([1]; 40 ug/ml, 3 Hour): 25
Nonviable ([1]; 40 ug/ml, 6 Hour): 27
Viable ([1]; 40 ug/ml, 6 Hour): 26
Nonviable ([1]; 80 ug/ml, 1 Hour): 28
Viable ([1]; 80 ug/ml, 1 Hour): 22
Nonviable ([1]; 80 ug/ml, 3 Hour): 32
Viable ([1]; 80 ug/ml, 3 Hour): 18
Nonviable ([1]; 80 ug/ml, 6 Hour): 34
Viable ([1]; 80 ug/ml, 6 Hour): 8
effect on T. vaginalis viability ([1]; 80 μg/ml, at 3 and 6 hours): next greatest effect
Nonviable ([1]; 160 ug/ml, 1 Hour): 30
Viable ([1]; 160 ug/ml, 1 Hour): 20
Nonviable ([1]; 160 ug/ml, 3 Hour): 27
Viable ([1]; 160 ug/ml, 3 Hour): 24
Nonviable ([1]; 160 ug/ml, 6 Hour): 43
Viable ([1]; 160 ug/ml, 6 Hour): 9
effect on T. vaginalis ([1]; 160 μg/ml, at 6 hours): strong inhibition and killing effect
Nonviable ([1]; 320 ug/ml, 1 Hour): 32
Viable ([1]; 320 ug/ml, 1 Hour): 18
Nonviable ([1]; 320 ug/ml, 3 Hour): 40
Viable ([1]; 320 ug/ml, 3 Hour): 13
Nonviable ([1]; 320 ug/ml, 6 Hour): 14
Viable ([1]; 320 ug/ml, 6 Hour): 0
effect on T. vaginalis ([1]; 320 μg/ml, at 1 hour): early inhibition and killing effect
surviving T. vaginalis ([1]; 320 μg/ml, at 6 hours): no surviving T. vaginalis could be observed
Relative Sensitivity (Compared to Other Strains Tested) ([1]; Trichomonas vaginalis (parasitic protozoan) ATCC 30001): Very Sensitive
Approximate Inhibitory Level ([1]; Trichomonas vaginalis (parasitic protozoan) ATCC 30001, level at which partial or total inhibition of growth is observed): 80 µg/mL
viability at 10 µg/mL ([1]; 10 ug/ml, 1 Hour, read-out: PerCent Viable): 52%
viability at 10 µg/mL ([1]; 10 ug/ml, 1 Hour, read-out: Percent Viable of Growth Control): 118%
viability at 10 µg/mL ([1]; 10 ug/ml, 3 Hour, read-out: PerCent Viable): 50%
viability at 10 µg/mL ([1]; 10 ug/ml, 3 Hour, read-out: Percent Viable of Growth Control): 96.2%
viability at 10 µg/mL ([1]; 10 ug/ml, 6 Hour, read-out: PerCent Viable): 50%
viability at 10 µg/mL ([1]; 10 ug/ml, 6 Hour, read-out: Percent Viable of Growth Control): 86.2%
viability at 20 µg/mL ([1]; 20 ug/ml, 1 Hour, read-out: PerCent Viable): 62%
viability at 20 µg/mL ([1]; 20 ug/ml, 1 Hour, read-out: Percent Viable of Growth Control): 140%
viability at 20 µg/mL ([1]; 20 ug/ml, 3 Hour, read-out: PerCent Viable): 44%
viability at 20 µg/mL ([1]; 20 ug/ml, 3 Hour, read-out: Percent Viable of Growth Control): 84.6%
viability at 20 µg/mL ([1]; 20 ug/ml, 6 Hour, read-out: PerCent Viable): 42%
viability at 20 µg/mL ([1]; 20 ug/ml, 6 Hour, read-out: Percent Viable of Growth Control): 72.4%
viability at 40 µg/mL ([1]; 40 ug/ml, 1 Hour, read-out: PerCent Viable): 56%
viability at 40 µg/mL ([1]; 40 ug/ml, 1 Hour, read-out: Percent Viable of Growth Control): 126%
viability at 40 µg/mL ([1]; 40 ug/ml, 3 Hour, read-out: PerCent Viable): 50%
viability at 40 µg/mL ([1]; 40 ug/ml, 3 Hour, read-out: Percent Viable of Growth Control): 96.2%
viability at 40 µg/mL ([1]; 40 ug/ml, 6 Hour, read-out: PerCent Viable): 49.1%
viability at 40 µg/mL ([1]; 40 ug/ml, 6 Hour, read-out: Percent Viable of Growth Control): 84.6%
viability at 80 µg/mL ([1]; 80 ug/ml, 1 Hour, read-out: PerCent Viable): 44%
viability at 80 µg/mL ([1]; 80 ug/ml, 1 Hour, read-out: Percent Viable of Growth Control): 99.4%
viability at 80 µg/mL ([1]; 80 ug/ml, 3 Hour, read-out: PerCent Viable): 36%
viability at 80 µg/mL ([1]; 80 ug/ml, 3 Hour, read-out: Percent Viable of Growth Control): 69.2%
viability at 80 µg/mL ([1]; 80 ug/ml, 6 Hour, read-out: PerCent Viable): 19%
viability at 80 µg/mL ([1]; 80 ug/ml, 6 Hour, read-out: Percent Viable of Growth Control): 32.8%
viability at 160 µg/mL ([1]; 160 ug/ml, 1 Hour, read-out: PerCent Viable): 40%
viability at 160 µg/mL ([1]; 160 ug/ml, 1 Hour, read-out: Percent Viable of Growth Control): 90.4%
viability at 160 µg/mL ([1]; 160 ug/ml, 3 Hour, read-out: PerCent Viable): 47.1%
viability at 160 µg/mL ([1]; 160 ug/ml, 3 Hour, read-out: Percent Viable of Growth Control): 90.5%
viability at 160 µg/mL ([1]; 160 ug/ml, 6 Hour, read-out: PerCent Viable): 17.3%
viability at 160 µg/mL ([1]; 160 ug/ml, 6 Hour, read-out: Percent Viable of Growth Control): 29.8%
viability at 320 µg/mL ([1]; 320 ug/ml, 1 Hour, read-out: PerCent Viable): 36%
viability at 320 µg/mL ([1]; 320 ug/ml, 1 Hour, read-out: Percent Viable of Growth Control): 81.3%
viability at 320 µg/mL ([1]; 320 ug/ml, 3 Hour, read-out: PerCent Viable): 24.5%
viability at 320 µg/mL ([1]; 320 ug/ml, 3 Hour, read-out: Percent Viable of Growth Control): 47.2%
viability at 320 µg/mL ([1]; 320 ug/ml, 6 Hour, read-out: PerCent Viable): 0%
viability at 320 µg/mL ([1]; 320 ug/ml, 6 Hour, read-out: Percent Viable of Growth Control): 0%
effect on CFU/ml ([2]; 80 μg/ml): slight effect
effect on the bacteria ([2]; 160 μg/ml): dramatic inhibition
CFU/ml ([2]; 160 μg/ml, T=48 and 72 hours): 0 CFU/ml
Relative Sensitivity (Compared to Other Strains Tested) ([2]; Streptococcus agalactiae (Group B) ATCC 49446): Moderately
Approximate Inhibitory Level ([2]; Streptococcus agalactiae (Group B) ATCC 49446, level at which partial or total inhibition of growth is observed): 160 µg/mL
effect on CFU/ml ([2]; all other concentrations (16, 8, 1.6 μg/ml)): very similar and near the CFU/ml of the Mueller Hinton II broth control
effect on CFU/ml ([3]; 160 and 80 μg/ml, at 4 hours, 160 greater effect than 80): reduced the CFU/ml
CFU/ml ([3]; 160 and 80 μg/ml, by the 24 hour time point): 0 CFU/ml
Relative Sensitivity (Compared to Other Strains Tested) ([3]; Corynebacterium minutissimum (ATCC 23348)): Very Sensitive
Approximate Inhibitory Level ([3]; Corynebacterium minutissimum (ATCC 23348), level at which partial or total inhibition of growth is observed): 80 µg/mL
effect compared to controls ([3]; all other test concentrations (1.6, 8, 16 μg/ml)): little effect
